# Experiments:
# BREC [1] = experiment: Cell migration assay (modified Boyden chamber); format: cell-based, bovine; details: VEGF 0.6 nM
# Procedure: Primary cultures of bovine retinal endothelial cells (BREC) were isolated and cultured as described (17). […] A modified Boyden chamber migration assay was performed by using BREC (25). The top and bottom surface of the chamber membrane was coated with collagen I. […] Cells that migrated to the bottom of the chamber were enumerated by counting SYTOX green (Molecular Probes) nucleic acid-stained cells.
# Rb = Rb phosphorylation in BREC (phospho-specific antibodies); format: cell-based, bovine; details: time-dependent, all sites (S249/T242, S780, S795, S807/S811, S821)
# BREC [2] = experiment: Cell growth assay (DNA content, VEGF-induced proliferation); format: cell-based, bovine; details: VEGF 0.6 nM, after 4 days
# Procedure: Primary cultures of bovine retinal endothelial cells (BREC) were isolated and cultured as described (17). Only cells from passages 2-7 were used for the experiments.
# BREC were plated onto 12-well culture plates and incubated overnight in DMEM containing 10% calf serum, after which the cells were infected with adenovirus (23). After incubation for 4 days at 37° C. with or without VEGF (0.6 nM), the cells were lysed in 0.1% SDS, and the DNA content was measured by means of Hoechst-33258 dye and a fluorometer (model TKO-100, Hoefer). E2 promoter binding factor (E2F) decoys were used as described (24).
# E2F = E2F luciferase assay in BREC; format: cell-based, bovine
# Procedure: Luciferase reporter constructs (Mercury Cell Cycle Profiling System, CLONTECH) were introduced into cells with LipofectAMINE reagent (Life Technologies, Rockville, Md.) as instructed by the manufacturer. Luciferase activity was measured by using the Dual-Luciferase Reporter Assay system (Promega).
# PKCβ2 and Rb = experiment: Association of PKCβ2 with Rb in BREC (immunoprecipitation / immunoblot); format: cell-based, bovine
# BREC [3] = details: VEGF 0.6 nM, sentence cites ref. (2); cited from earlier work
molecule,measurement,setting,value
VEGF,increase of migration of BREC,BREC [1],2 fold
same,increase of phosphorylation of Rb,Rb,up to 3 fold
same,increase in BREC total DNA content,BREC [2],2 fold
same,increase of E2F activity,E2F,8.6 fold
same,increase of phosphorylated Rb levels (pS780) in PKCβ2-Rb complex,"PKCβ2 and Rb; VEGF 0.6 nM, overexpression of PKCβ2",2- to 3 fold
same,increase of amount of PKCβ2-associated Rb protein,"PKCβ2 and Rb; VEGF 0.6 nM, immunoprecipitation with antibodies to Rb, immunoblot PKCβ2",1.7 fold
same,increase of association of PKCβ2 with Rb,"PKCβ2 and Rb; immunoprecipitation with anti-PKCβ2 antibody, Rb immunoblot",2.2 fold
COC[C@H]1OC(=O)c2coc3c2[C@@]1(C)C1=C(C3=O)[C@@H]2CCC(=O)[C@@]2(C)C[C@H]1OC(C)=O [wortmannin],inhibition of VEGF-induced BREC migration,BREC [1],41%
CN(C)CCCn1cc(C2=C(c3c[nH]c4ccccc34)C(=O)NC2=O)c2ccccc21 [GFX],effect on VEGF-increased BREC migration,BREC [1],inhibited
same,effect on VEGF's mitogenic activity,BREC [3],blocked VEGF's mitogenic activity completely
COc1cccc(-c2cc(=O)c3ccccc3o2)c1N [PD98059],effect on VEGF-increased BREC migration,BREC [1],inhibited
same,effect on VEGF's mitogenic activity,BREC [3],blocked VEGF's mitogenic activity completely
